Results: US20240140895A1, “NOVEL AROMATIC MOLECULES” (XENIOPRO GmbH, priority 2018, published 2024)

Columns and labels:
Assay type in all cases: cell-based
[1] = tested on: Notch signaling (human Notch1 receptor, hNotch1ΔE); test: Notch reporter assay (dual luciferase, HeLa cells transfected with hNotch1ΔE); settings: 10 μM
Description: The activation level of Notch signaling can be quantified in vitro reliably by measuring the expression levels of Notch specific target genes. This can be accomplished by the quantification of corresponding mRNA or protein of a particular Notch target gene. Alternatively, cells can be genetically modified to carry a luciferase gene as an artificial Notch target gene, which is expressed in dependence of Notch activity. In this setting, Notch signaling levels can be quantified by measuring the luciferase-derived bioluminescence values.
An according Notch-reporter assay, i.e. a luciferase-based luminescence readout, was used here to quantify the ability of the claimed compounds to augment Notch signaling in a cellular system. […] After 24 hours of transfection, the transfected cells were carefully detached from the dish using 0.5 mM EDTA in PBS and seeded into 96-well plates suitable for luminescence readouts (CORNING, #3610) at 10,000 cells per well. […] Directly after the lysis, first the Firefly and then the Renilla luciferase values were measured consecutively from the same well with a luminescence reader immediately after applying 15 μL per well each of the corresponding enzyme substrates needed to create the luminescence signals (Promega, Dual-Luciferase® Reporter Assay System, #E1910). […]

[2] = tested on: A-431 cells (human epidermoid squamous cell carcinoma cells); test: Proliferation assay (alamarBlue) with A-431 cells
Description: (§1) The antiproliferative activities of compounds falling under formula (Ia), (Tb) and (Ic), respectively, were investigated on cells or cell lines originating from a disorder of the haematopoietic system, including the myeloid cell compartment and the lymphoid cell compartment (T-cells and B-cells), the neuroendocrine system, the cervix, the breast, the ovaries, the lung, the gastrointestinal tract, and the mucosal epithelium, as well as from the skin epithelium and from the muscle. To this end, HL-60 cells, NB-4 cells, HH cells, RPMI-8402 cells, TANOUE cells, TT cells, HeLa cells, MDA-MB-231 cells, FU-OV-1 cells, LOU-NH91 cells, 23132/87 cells, CAL-27 cells, BHY cells, SCC-25 cells, A-431 cells, human primary epidermal keratinocytes (HPEK), and C2C12 cells were seeded into 96-well plates suitable for fluorescence assays (CORNING #3598) at following initial cell numbers: 1000 cells per well for HL-60; 1000 cells per well for NB-4; 5000 cells per well for HH; 5000 cells per well for RPMI-8402; 1500 cells per well for TANOUE; 9000 cells per well for TT; 2000 cells per well for HeLa; 3000 cells per well for MDA-MB-231; 3000 cells per well for FU-OV-1; 4000 cells per well for LOU-NH91; 2000 cells per well for 23132/87; 2000 cells per well for CAL-27; 1500 cells per well for BHY; 1500 cells per well for SCC-25; 700 cells per well for A-431; 1000 cells per well for HPEK; 500 cells per well for C2-C12. The cells were treated with compounds at indicated final concentrations (diluted from the 1000× stock-solutions in DMSO to a final DMSO concentration of 0.1% v/v in H2O (Water For Injection, WFI, Fisherscientific #10378939)) or with the empty carrier DMSO at 0.1% v/v as control for 5 days. At day 5 after starting the treatments the cells were subjected to the alamarBlue® Proliferation Assay (Bio-Rad Serotec GmbH, BUF012B) according to the protocol of the manufacturer. The readout was taken with a multi-well plate-reader in the fluorescence mode with applying a filter for excitation at 560 nm (band width 10 nm) and for emission at 590 nm (band width 10 nm). Control treatments for growth inhibition with commercial compounds such as Methotrexate (MTREX) and Resveratrol (RES) were included on every plate. Some of the test compounds of the present invention were obtained and applied as their salts. According cases are indicated in the column “Specification” in Table 30 to Table 62 and by their sum formula in Table 63.
(§2) The assays were performed in duplicate or more replicates of independent single experiments each containing a six-fold replicate for every condition. For every individual plate, the measured fluorescence intensity values of the conditions with compound treatment were normalized against the corresponding equally weighted arithmetic mean of the fluorescence intensity values of the six DMSO treated control wells in order to obtain the relative values to a baseline level of 1.0.
(§3) Two independent outlier analyses were performed according to the methods by Peirce and Chauvenet (Ross, Journal of Engineering Technology 2003, 1-12). Outliers confirmed by at least one of the methods were excluded from the calculations but not more than one value out of six per compound within a single experiment. The weighted arithmetic mean (here abbreviated as AVEw) for each compound was calculated from the normalized values over all independent replicates of the single experiments comprising the six replicates each. The corresponding standard deviation for the weighted arithmetic mean was calculated according to the method described by Bronstein et al. (Bronstein, Semendjajew, Musiol, Muhlig, Taschenbuch der Mathematik, 5th edition 2001 (German), publisher: Verlag Harri Deutsch, Frankfurt am Main and Thun) and was combined with the Gauβ′ error propagation associated with the performed calculation for the normalization. The resulting standard deviation is herein referred to as “combined standard deviation”. […]

[3] = tested on: CAL-27 cells (human tongue squamous cell carcinoma cells); test: Proliferation assay (alamarBlue) with CAL-27 cells; settings: read-out: Activity Range: weighted arithmetic mean (AVEw) of normalized fluorescence intensity relative to DMSO basis level 1.0
Description: as §1, §2, §3

[4] = tested on: HH cells (human cutaneous T-cell lymphoma cells); test: Proliferation assay (alamarBlue) with HH cells; settings: Table 34, compound at 20 μM, read-out: Activity Range (AVEw, weighted arithmetic mean of normalized fluorescence intensity, DMSO = 1.0)
Description: as §1, §2, §3

[5] = tested on: TANOUE cells (human B cell leukemia cells); test: Proliferation assay (alamarBlue) with TANOUE cells; settings: Homo sapiens, B-cell, read-out: Activity Range: weighted arithmetic mean (AVEw) of normalized fluorescence intensity relative to DMSO basis level 1.0
Description: as §1, §2, §3

[6] = tested on: BHY cells (human oral squamous cell carcinoma cells); test: Proliferation assay (alamarBlue) with BHY cells; settings: read-out: Activity Range: weighted arithmetic mean (AVEw) of normalized fluorescence intensity relative to DMSO basis level 1.0
Description: as §1, §2, §3

[7] = tested on: C2C12 cells (murine myoblast cells); test: Proliferation assay (alamarBlue) with C2C12 cells; settings: Mus musculus, compound at 20 μM, read-out: Activity Range: weighted arithmetic mean (AVEw) of normalized fluorescence intensity, relative to DMSO basis level 1.0
Description: as §1, §2, §3

[8] = tested on: HL-60 cells (human acute myeloid leukemia cells); test: Proliferation assay (alamarBlue) with HL-60 cells
Description: as §1, §2, §3

[9] = tested on: HeLa cells (human cervical adenocarcinoma cells); test: Proliferation assay (alamarBlue) with HeLa cells; settings: compound at 20 μM
Description: (§4) The antiproliferative activities of compounds falling under formula (Ia), (Tb) and (Ic), respectively, were investigated on cells or cell lines originating from a disorder of the haematopoietic system, including the myeloid cell compartment and the lymphoid cell compartment (T-cells and B-cells), the neuroendocrine system, the cervix, the breast, the ovaries, the lung, the gastrointestinal tract, and the mucosal epithelium, as well as from the skin epithelium and from the muscle. To this end, HL-60 cells, NB-4 cells, HH cells, RPMI-8402 cells, TANOUE cells, TT cells, HeLa cells, MDA-MB-231 cells, FU-OV-1 cells, LOU-NH91 cells, 23132/87 cells, CAL-27 cells, BHY cells, SCC-25 cells, A-431 cells, human primary epidermal keratinocytes (HPEK), and C2C12 cells were seeded into 96-well plates suitable for fluorescence assays (CORNING #3598) at following initial cell numbers: 1000 cells per well for HL-60; 1000 cells per well for NB-4; 5000 cells per well for HH; 5000 cells per well for RPMI-8402; 1500 cells per well for TANOUE; 9000 cells per well for TT; 2000 cells per well for HeLa; 3000 cells per well for MDA-MB-231; 3000 cells per well for FU-OV-1; 4000 cells per well for LOU-NH91; 2000 cells per well for 23132/87; 2000 cells per well for CAL-27; 1500 cells per well for BHY; 1500 cells per well for SCC-25; 700 cells per well for A-431; 1000 cells per well for HPEK; 500 cells per well for C2-C12. […] The readout was taken with a multi-well plate-reader in the fluorescence mode with applying a filter for excitation at 560 nm (band width 10 nm) and for emission at 590 nm (band width 10 nm). […]
as §2, with “1.0. […]” for “1.0.”

[10] = tested on: MDA-MB-231 cells (human breast carcinoma cells); test: Proliferation assay (alamarBlue) with MDA-MB-231 cells; settings: Homo sapiens, read-out: Activity Range: weighted arithmetic mean (AVEw) of normalized fluorescence intensity relative to DMSO basis level 1.0
Description: as §1, §2, §3

[11] = tested on: RPMI-8402 cells (human T cell acute lymphoblastic leukemia cells); test: Proliferation assay (alamarBlue) with RPMI-8402 cells; settings: Homo sapiens, read-out: Activity Range: weighted arithmetic mean (AVEw) of normalized fluorescence intensity relative to DMSO basis level 1.0
Description: as §1, §2, §3

[12] = tested on: NB-4 cells (human acute promyelocytic leukemia cells); test: Proliferation assay (alamarBlue) with NB-4 cells
Description: as §1, §2, §3

[13] = tested on: FU-OV-1 cells (human ovarian carcinoma cells); test: Proliferation assay (alamarBlue) with FU-OV-1 cells; settings: 20 μM
Description: as §4
as §2, with “1.0. […]” for “1.0.”

[14] = tested on: TT cells (human medullary thyroid carcinoma cells); test: Proliferation assay (alamarBlue) with TT cells; settings: compound at 20 μM
Description: as §4
as §2, with “1.0. […]” for “1.0.”

[15] = tested on: LOU-NH91 cells (human lung squamous cell carcinoma cells); test: Proliferation assay (alamarBlue) with LOU-NH91 cells; settings: 20 μM
Description: as §4
as §2, with “1.0. […]” for “1.0.”

[16] = tested on: 23132/87 cells (human gastric adenocarcinoma cells); test: Proliferation assay (alamarBlue) with 23132/87 cells; settings: read-out: Activity Range: weighted arithmetic mean (AVEw) of normalized fluorescence intensity relative to DMSO basis level 1.0
Description: as §1, §2, §3

[17] = tested on: SCC-25 cells (human tongue squamous cell carcinoma cells); test: Proliferation assay (alamarBlue) with SCC-25 cells; settings: Homo sapiens, read-out: Activity Range: weighted arithmetic mean (AVEw) of normalized fluorescence intensity relative to DMSO basis level 1.0
Description: as §1, §2, §3

Structure (SMILES) | Activity Range: weighted arithmetic mean (AVEw) of double-normalized Notch-reporter luminescence, relative to DMSO basis level 1.0 [1] | activity at 20 µM ([2]; Homo sapiens, 20 μM, read-out: Activity Range: weighted arithmetic mean (AVEw) of normalized fluorescence intensity relative to DMSO basis level 1.0) | Activity Range: weighted arithmetic mean (AVEw) of normalized fluorescence intensity relative to DMSO basis level 1.0 ([2]; compound at 20 μM) | activity at 20 µM [3] | activity at 20 µM [4] | activity at 20 µM [5] | activity at 20 µM [6] | activity at 20 µM [7] | activity at 20 µM ([8]; Homo sapiens, Table 30, compound at 20 μM, read-out: Activity Range (AVEw, weighted arithmetic mean of normalized fluorescence intensity, DMSO = 1.0)) | Activity Range (AVEw, weighted arithmetic mean of normalized fluorescence intensity, DMSO = 1.0) ([8]; Table 31, compound at 20 μM) | Activity Range: weighted arithmetic mean (AVEw) of normalized fluorescence intensity relative to DMSO basis level 1.0 [9] | activity at 20 µM [10] | activity at 20 µM [11] | activity at 20 µM ([12]; Homo sapiens, Table 32, compound at 20 μM, read-out: Activity Range (AVEw, weighted arithmetic mean of normalized fluorescence intensity, DMSO = 1.0)) | Activity Range (AVEw, weighted arithmetic mean of normalized fluorescence intensity, DMSO = 1.0) ([12]; Table 33, compound at 20 μM) | Activity Range: weighted arithmetic mean (AVEw) of normalized fluorescence intensity relative to DMSO basis level 1.0 [13] | Activity Range: weighted arithmetic mean (AVEw) of normalized fluorescence intensity relative to DMSO basis level 1.0 [14] | Activity Range: weighted arithmetic mean (AVEw) of normalized fluorescence intensity relative to DMSO basis level 1.0 [15] | activity at 20 µM [16] | activity at 20 µM [17]
C[C@H](NC(=O)Cc1cc(F)cc(F)c1)C(=O)N[C@H](C(=O)OC(C)(C)C)c1ccccc1 [DAPT] | 0.1 ± 0.0 | – | – | – | – | – | – | – | – | – | – | – | – | – | – | – | – | – | – | –
O=Cc1ccc(Oc2ccc(C3CCCCC3)cc2)cc1 [XPA-0020] | 2.0 ≤ AVEw | – | – | – | – | – | – | – | – | – | – | – | – | – | – | – | – | – | – | –
CN(Cc1cnc2nc(N)nc(N)c2n1)c1ccc(C(=O)N[C@@H](CCC(=O)O)C(=O)O)cc1 [MTREX, Methotrexate, reference compound] | – | 20 ± 10% | 0.2 ± 0.1 | 10% | 40 ± 10% | 10% | 30% | 10% | 10 ± 10% | 0.1 ± 0.1 | 0.4 ± 0.0 | 60% | 10% | 10% | 0.1 ± 0.0 | 1 ± 0.0 | 1.0 ± 0.0 | 0.5 ± 0.1 | 30% | 50 ± 10%
